Results published in patent publication US5451508A, “Method and monoclonal antibodies for vitamin B12 determination” (Boehringer Mannheim GmbH, priority 1989, dated 1995).

Test system: monoclonal antibody MAB 1 and MAB 2
Assay: ELISA determination of the cross-reaction of vitamin B12 derivatives with the monoclonal antibodies
Assay type: binding, mice
Conditions: for cross-reactivity: monoclonal antibodies according to the invention (e.g. from cell lines ECACC 88101301 and ECACC 88101302), stated in description; for cross-reaction: values identical for MAB 1 and MAB 2, antigen added at 50, 500, 5000 μg/ml, calculated from concentrations giving 50% of max. signal
Procedure: The plates are re-treated for 10 minutes with 0.9% sodium chloride solution and 1% albumin solution. Subsequently they are washed with 0.9% sodium chloride solution.
Afterwards they are incubated at 37° C. for one hour with 100 μl sample and washed again with 0.9% sodium chloride solution. In order to test the cross-reaction 50, 500 and 5000 μg/ml of the vitamin B12 derivative to be tested is added to the sample solution. A reduction of the measured signal in the presence of the derivative indicates a cross-reaction. A further incubation follows (1 hour, 37° C.) with 450 U/ml of a sheep-Fab-anti-mouse Fcγ peroxidase conjugate. After washing once again with 0.9% sodium chloride the peroxidase activity is determined in the usual way (for example with 2,2'azino-di-[3-ethylbenzthiazoline sulphonate (6)] (ABTS®), 30 minutes at room temperature, the difference in absorbance ΔmA is read at 422 nm).
The antigen to be tested for cross-reaction is added in increasing concentrations (50 μg/ml, 500 μg/ml, 5000 μg/ml) to the monoclonal antibody. Afterwards the cross-reaction is calculated from the following formula: [formula]

Compound	cross-reactivity [%]	cross-reaction
2-hydroxy-5,6-dimethylbenzimidazolyl-cobamide	1.5	1.5
C/C1=C2/[N-][C@H]([C@H](CC(N)=O)[C@@]2(C)CCC(=O)NC[C@@H](C)OP(=O)([O-])O[C@H]2[C@@H](O)[C@@H](n3cnc4cc(C)c(C)cc43)O[C@@H]2CO)[C@]2(C)N=C(/C(C)=C3N=C(/C=C4N=C1[C@@H](CCC(N)=O)C\4(C)C)[C@@H](CCC(N)=O)[C@]\3(C)CC(N)=O)[C@@H](CCC(N)=O)[C@]2(C)CC(N)=O.[CH3-].[Co+3] [Methylcobalamin]	100	100
(carboxy(2-cyanamino-4,5-dimethylphenyl)-amino)-cobamide	0.07	0.07
Cobyrinic acid-diamide	< 0.05	< 0.05
Purinylcobinamide	1.1	1.1
